Reference: patent US7153883B2, “Carboxylic acids and carboxylic acid isosteres of N-heterocyclic compounds” (GPI NIL Holdings Inc., priority 1998, dated 2006)

Legend:
[1] = tested on: retinal ganglion cell axons; assay: Protection of retinal ganglion cell axons 14 days after optic nerve transection (RT97); format: in vivo, Sprague Dawley rats; conditions: ± SEM
Source text: Efficacy of representative compounds from different immunophilin ligand series in protecting retinal ganglion cell axons from degeneration following optic nerve transection is set forth in Table VI.

[2] = Clearance; format: in vitro ADME
[3] = tested on: dopaminergic neurons; assay: MPTP model of Parkinson's Disease in mice (TH immunostaining); format: in vivo, CD1 white mice; conditions: Mus musculus, Neuron, po; 10 mg/kg p.o.; MPTP-lesioned mice; read-out: Post-MPTP % TH RECOVERY
Experimental: MPTP lesioning of dopaminergic neurons in mice was used as an animal model of Parkinson's Disease. Four week old male CD1 white mice were dosed i.p. with 30 mg/kg of MPTP for 5 days. […] At 18 days following MPTP treatment, the animals were sacrificed and the striata were dissected and homogenized. Immunostaining was performed on saggital and coronal brain sections using anti-tyrosine hydroxylase Ig to quantitate survival and recovery of dopaminergic neurons. In animals treated with MPTP and vehicle, a substantial loss of functional dopaminergic terminals was observed as compared to non-lesioned animals. In another protocol, test compounds were administered only subsequent to MPTP-induced lesioning. Thus, after animals were treated with MPTP for 5 days, an additional 3 days passed before beginning oral drug treatment on day 8. […] On day 18, the animals were sacrificed and analyzed as described above.
Table V presents the percent recovery of dopaminergic neurons in the first (concurrent dosing) paradigm in animals receiving carboxylic acid or carboxylic acid isostere compounds of the present invention.
Percent striatal innervation density was quantitated in brain sections with an anti-tyrosine hydroxylase immunoglobulin, which is indicative of functional dopaminergic neurons. The striatal innervation density of 23% for animals pretreated with only a vehicle and administered a vehicle orally during treatment, is indicative of normal non-lesioned striatal tissue. Striatal innervation density is reduced to 5% for animals pretreated with MPTP and administered a vehicle orally during treatment, and is indicative of MPTP-induced lesioning.

[4] = tested on: hair growth; assay: In vivo hair generation test with C57 Black 6 mice; conditions: topical, 1 μmole per milliliter three times per week, evaluated after 14 days
Experimental: Care was taken not to nick or cause abrasion to the underlaying dermal layers. The animals were in anagen growth phase, as indicated by the pinkish color of the skin. Referring now to FIG. 2, four animals per group were treated by topical administration with 20% propylene glycol vehicle (FIG. 2), or neuroimmunophilin FKBP ligands dissolved in the vehicle. The animals were treated with vehicle or neuroimmunophilin ligands every 48 hours (3 applications total over the course of 5 days) and the hair growth was allowed to proceed for 6 weeks. Hair growth was quantitated by the percent of shaved area covered by new hair growth during this time period.
Care was taken not to nick or cause abrasion to the underlying dermal layers. Compounds at a concentration of 1 μmole per milliliter were carefully applied to the shaved area of the mice (5 mice per group) three times per week. Hair growth was evaluated 14 days after initiation of drug treatment. The relative scale for assessing hair growth is as follows: • 0=no growth; • 1=beginning of growth in small tufts; • 2=hair growth covering over <25% of shaved area; • 3=hair growth covering over >25% of shaved area, but less than 50% of shaved area; • 4=hair growth covering over >50% of shaved area, but less than 75% of shaved area; • 5=complete hair growth of shaved area.

[5] = biological target: Rotamase (Homo sapiens, UniProt P62942); assay: Rotamase inhibition; format: biochemical; conditions: read-out: K1 Rotamase
Rotamase, sequence (P62942 2-108 limits assumed): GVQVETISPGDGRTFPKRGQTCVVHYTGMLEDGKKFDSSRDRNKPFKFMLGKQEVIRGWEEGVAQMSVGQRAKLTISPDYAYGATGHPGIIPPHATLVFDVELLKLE

[6] = tested on: retina; assay: Streptozotocin induced diabetes: retinal neovascularization and neuron loss; format: in vivo; conditions: 28 day treatment beginning 8 weeks after onset of diabetes
[7] = tested on: retinal ganglion cells; assay: Retinal ischemia: ganglion cell, optic nerve axon and myelin degeneration; format: in vivo, rats
Source text: Retinal ganglion cells were retrogradely labeled in adult rats by bilateral injection of fluorogold in their lateral geniculate nuclei. Labeled ganglion cells in the normal rat retina appear as white profiles against the dark background (FIG. 4A). Complete retinal ischemia was produced by infusing normal saline solution into the retinal vitreous cavity of each eye until the intraocular pressure exceeded arterial blood pressure. 28 days after the ischemic episode extensive degeneration of retinal ganglion cell was evidenced by massive reduction in the density of fluorogold labeled cells (FIG. 4B).

[8] = tested on: spatial memory; assay: Morris watermaze spatial learning and memory in aged rodents; format: in vivo, C57BL/6N-Nia mice; conditions: 10 mg/kg daily, retention testing after 3 weeks of dosing; aged impaired mice
Source text: The Morris watermaze is widely used for assessing spatial memory formation and retention in experimental animals. The test depends on the animal's ability to utilize spatial visual information in order to locate a submerged escape platform in a water tank. It is important that the tank itself be as devoid of specific visual features as possible—thus, it is always circular in shape, the sides are kept smooth and in uniform dull colors, and the water is rendered opaque with nontoxic watercolour pigment or powdered milk. This is to ensure that the animal navigates only by the use of more distant visual cues, or by the use of intra-maze cues specifically provided by the experimenter. The animals' path, speed, and swim time are tracked with a ceiling camera for later computerized analysis. Over the course of several successive trials, spatial learning can therefore be defined as a drop of distance swum, or time elapsed, from placement in the tank until escape onto the invisible platform. The procedure involved using three-month old (young) and 18–19 month old male C57BL/6N-Nia (aged) mice which habituated to the well known and conventional Morris watermaze during a 4 trials/day, 3–4 day visible platform training phase. […] Swim Distances (cm) were analyzed in a 7×5 ANOVA including Groups and Blocks (1–5) as factors in the analysis, treating Blocks as a repeated measure.

[9] = tested on: retinal ganglion cells and optic nerve axons; assay: Optic nerve transection: retinal ganglion cell survival, optic nerve axons and myelin 90 days after transection; format: in vivo, Sprague Dawley rats
Source text: Transection of the mammalian optic nerve results in a brief period of abortive regeneration, but the majority of axotomized neurons die and the axons from many persisting ganglion cells die back beyond the optic nerve head. […]
All eyes and optic nerves stumps were removed.

[10] = 28 days after 1 hour retinal ischemic episode
[11] = 10 mg/kg/day s.c. for 28 days, 90 days after transection
[12] = treatment first 14 days, 90 days after transection
[13] = treatment first 28 days, 90 days after transection

In the case of `O=C(SCCCc1ccccc1)[C@@H]1CCCN1S(=O)(=O)Cc1ccccc1` [C], the “RT97 + RGC axon density 14 days after ON transection (% ON axons rescued)” value [1] is reported as 60.4%±3.1%SEM and the Clearance [2] is reported as 31.1 µL/min.

Compound `CCC(C)(C)C(=O)C(=O)N1CCC[C@H]1CO` [Compound 26, (2S)-1-(1,2-dioxo-3,3-dimethylpentyl)-2-hydroxymethyl pyrrolidine] has a percent TH recovery after MPTP at 10 mg/kg [3] of 23.2%.

Work on `CCC(C)(C)C(=O)C(=O)N1CCC[C@H]1CC#N` [Compound 28, 2-[1-(3,3-Dimethyl-2-oxopentanoyl)pyrrolidin-2-yl]ethanenitrile] yielded a percent TH recovery after MPTP at 10 mg/kg [3] of 15.7% and a melting point of 91 to 93 °C.

With `CCC(C)(C)C(=O)C(=O)N1CCC[C@H]1C#N` [Compound 29, (2S)-1-(1,2-dioxo-3,3-dimethylpentyl)-2-pyrrolidinecarbonitrile] the percent TH recovery after MPTP at 10 mg/kg [3] was 34.1%.

Compound `CCC(C)(C)C(=O)C(=O)N1CCC[C@H]1c1nnn[nH]1` [Compound 30, (2S)-1-(1,2-dioxo-3,3-dimethylpentyl)-2-pyrrolidinetetrazole] has a percent TH recovery after MPTP at 10 mg/kg [3] of 19.6%.

With `CCC(C)(C)C(=O)C(=O)N1CCCC[C@H]1C(N)=O` [Compound 35, (2S)-1-(1,2-dioxo-3,3-dimethylpentyl)-2-aminocarbonyl piperidine] the percent TH recovery after MPTP at 10 mg/kg [3] was 46.5% and the “hair growth on shaved area” value [4] was “dramatic hair growth”.

With `CCC(C)(C)C(=O)C(=O)N1CCC[C@H]1C(=O)O` [Compound 137, (2S)-1-(1,2-dioxo-3,3-dimethylpentyl)-2-pyrrolidinecarboxylic acid] the percent TH recovery after MPTP at 10 mg/kg [3] was 26.7% and the “hair growth on shaved area” value [4] was “dramatic hair growth”.

`CCC(C)(C)C(=O)C(=O)N1CCC[C@H]1C(=O)NNC(=O)c1cccs1` [Compound 140, [1-(3,3-Dimethyl-2-oxopentanoyl)pyrrolidin-2-yl]-N-(2-thienylcarbonylamino)-formamide] gave a percent TH recovery after MPTP at 10 mg/kg [3] of 10.4% and a melting point of 72 to 74 °C.

Compound `CCC(C)(C)C(=O)C(=O)N1CCC[C@H]1COc1ccc([N+](=O)[O-])cc1` [Compound 141, 3,3-Dimethyl-1-{2-[(4-nitrophenoxy)methyl]pyrrolidinyl}pentane-1,2-dione] has a percent TH recovery after MPTP at 10 mg/kg [3] of 26.3%.

Work on `CCC(C)(C)C(=O)C(=O)N1CCC[C@H]1C(=O)NNS(=O)(=O)c1ccc(C)cc1` [Compound 146, [1-(3,3-Dimethyl-2-oxopentanoyl)pyrrolidin-2-yl]-N-{[(4-methylphenyl)sulfonyl]-amino}formamide] yielded a percent TH recovery after MPTP at 10 mg/kg [3] of 40.6% and a melting point of 59 to 61 °C.

`CCC(C)(C)C(=O)C(=O)N1CCC[C@H]1C(=O)NNS(=O)(=O)c1ccc(F)cc1` [Compound 147] showed a melting point of 57 to 60 °C.

`CCC(C)(C)C(=O)C(=O)N1CCC[C@H]1c1nnc(S)[nH]1` [Compound 148, (2S)-3,3-Dimethyl-1-[2-(5-sulfanyl(4H-1,2,4-triazol-3-yl))pyrrolidinyl]-pentane-1,2-dione] showed a percent TH recovery after MPTP at 10 mg/kg [3] of 21.4%.

For `CCC(C)(C)C(=O)C(=O)N1CCCCC1C(=O)OC(CCc1ccccc1)CCc1ccccc1` (centres unmarked) [E], the Clearance [2] was 41.8 µL/min.

`CCC(C)(C)C(=O)C(=O)N1CCSC1C(=O)OCCCc1cccnc1` (centres unmarked) [F] showed a Ki [5] of 272 nM.

With `CCC(C)(C)C(=O)C(=O)N1CCC[C@H]1C(=O)OCCCc1cccnc1` [GPI 1046] the “neovascularization in the PR, ONL, OPL and INL” value [6] was “reduced neovascularization”, the “neuronal loss in the ONL” value [6] was “did not appear to protect against neuronal loss in the ONL” and the “loss of neurons in the INL and GCL” value ([6]; vs streptozotocin/vehicle) was “appeared to decrease the loss of neurons”. For the same compound, the “protection of vulnerable ganglion cell population” value ([7]; 10 mg/kg s.c. 1 hour prior to ischemia and 10 mg/kg/day next four days, 28 days after ischemia) was “noticeable protection of a large proportion”, the “density of degenerating myelin figures” value [7, 10] was “dramatically decreased” and the “optic nerve axon degeneration” value [7, 10] was “protected the majority of optic nerve axons from degeneration”. For the same compound, the “spatial memory performance (retention testing, swim distance)” value [8] was “significantly enhanced spatial memory performance”, the “RT97 + RGC axon density 14 days after ON transection (% ON axons rescued)” value [1] was 60.5%±3.9%SEM and the “axons of protected neurons in the proximal stump” value [9, 11] was “preserved the axons of virtually all protected neurons”. For the same compound, the “ganglion cell population spared” value [9, 11] was 25%, the “density of large, medium and small caliber optic nerve axons” value ([9]; 28 day treatment) was “significant increase” and the “density of myelin, distal stump” value ([9]; treatment first 14 days) was “slightly increase the density of myelin”. The “shrinkage of the distal stump” value ([9]; treatment first 14 days) was “did not protect against shrinkage of the distal stump”, the “protection of optic nerve axons, proximal stump” value [9, 12] was 5.3% and the “recovery in myelin density, proximal stump” value [9, 12] was 1.6%. For the same compound, the “cross sectional shrinkage of the distal stump” value ([9]; treatment first 28 days) was “prevented cross sectional shrinkage”, the “protection of the vulnerable ganglion cell population” value ([9]; treatment first 28 days after transection, 90 days after transection) was 12.6% and the “myelin levels in distal stump, % of normal levels” value [9, 13] was 99%. The “recovery of myelin density, proximal stump” value [9, 13] was 70%, the “density of retinal ganglion cells that survived” value ([9]; treatment for 14 days, 90 days after transection) was “small but not significant increase” and the “spared retinal ganglion cells with protected optic nerve axons” value ([9]; treatment for 28 days, 90 days after transection) was 81.4%. For the same compound, the Clearance [2] was 63.8 µL/min.

`O=C(OCCCc1cccnc1)[C@@H]1CCCN1C(=S)NC1CCCCC1` [I] showed a Clearance [2] of 8.0 µL/min.

With `CCC(C)(C)C(=O)C(=O)N1CCC[C@H]1C(=O)CCCCc1cccnc1` [J] the Clearance [2] was 1.5 µL/min.

Work on `CCC(C)(C)C(=O)C(=O)N1CCCC[C@H]1C(=O)SCCC(c1ccccc1)c1ccccc1` [K] yielded a Clearance [2] of 4.5 µL/min.

For `CCC(C)(C)C(=O)C(=O)N1CCC[C@H]1C(=O)O` [L], the “RT97 + RGC axon density 14 days after ON transection (% ON axons rescued)” value [1] was 7.8%±3.0%SEM and the Clearance [2] was 5.2 µL/min.

In the case of `CCC(C)(C)C(=O)C(=O)N1CCC[C@H]1C(=O)SCCC(c1ccccc1)c1ccccc1` [M], the “RT97 + RGC axon density 14 days after ON transection (% ON axons rescued)” value [1] is reported as −6.3%±3.9%SEM and the Clearance [2] is reported as 12.5 µL/min.

Compound `CN(C)C(=O)N1CCC[C@H]1C(=O)SCCCc1ccccc1` [N] has a Clearance [2] of 21.9 µL/min.
